Test results taken from patent US7425557B2, “Inhibitors of glycogen synthase kinase 3” (Novartis Vaccines and Diagnostics, Inc., priority 1998, dated 2008).

Molecular target: human GSK3β (Homo sapiens, UniProt P49841)
Assay: Screening for GSK3 inhibitory activity using a cell-free assay
Assay type: biochemical
Conditions: read-out: IC50 with respect to GSK3
How it was run: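 Compounds in DMSO were tested against human GSK3β over a three-hour kinase reaction. Radiolabeled phosphate transferred to the peptide was captured on streptavidin plates after EDTA/ATP stop and quantified by scintillation counting. Signal was plotted versus compound concentration.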

Sequence of human GSK3β (P49841 whole entry): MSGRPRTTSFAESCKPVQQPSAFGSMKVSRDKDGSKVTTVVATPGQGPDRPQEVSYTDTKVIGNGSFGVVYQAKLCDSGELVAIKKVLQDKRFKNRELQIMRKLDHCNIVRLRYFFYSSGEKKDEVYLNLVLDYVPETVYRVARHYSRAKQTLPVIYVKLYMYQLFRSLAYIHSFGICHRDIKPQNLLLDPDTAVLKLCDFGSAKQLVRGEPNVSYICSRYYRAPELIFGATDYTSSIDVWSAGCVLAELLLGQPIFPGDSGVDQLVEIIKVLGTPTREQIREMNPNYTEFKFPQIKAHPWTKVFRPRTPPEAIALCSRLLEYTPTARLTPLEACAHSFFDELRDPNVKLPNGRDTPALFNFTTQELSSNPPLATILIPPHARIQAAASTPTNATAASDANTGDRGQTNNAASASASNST

IC50	SMILES
≤ 1000 nM	Cc1cc(Cl)ccc1-c1nc(NCCNc2ccc([N+](=O)[O-])c(N)n2)ncc1-c1ncc[nH]1 [{2-[(6-amino-5-nitro(2-pyridyl))amino]ethyl}[4-(4-chloro-2-methylphenyl)-5-imidazol-2-ylpyrimidin-2-yl]amine]
≤ 1000 nM	O=[N+]([O-])c1ccc(NCCNc2ncc(-c3ncc[nH]3)c(-c3ccc(F)cc3Cl)n2)nc1 [[4-(2-chloro-4-fluorophenyl)-5-imidazol-2-ylpyrimidin-2-yl]{2-[(5-nitro(2-pyridyl))amino]ethyl}amine]
≤ 1000 nM	N#Cc1ccc(-c2nc(NCCNc3ccc([N+](=O)[O-])cn3)ncc2C(=O)NCc2ccccc2)cc1 [[4-(4-cyanophenyl)-2-({2-[(5-nitro(2-pyridyl))amino]ethyl}amino)pyrimidin-5-yl]-N-benzylcarboxamide]
≤ 1000 nM	Cc1cn(-c2cnc(NCCNc3ccc([N+](=O)[O-])cn3)nc2-c2ccc(Cl)cc2Cl)c(C)n1 [[4-(2,4-dichlorophenyl)-5-(2,4-dimethylimidazolyl)pyrimidin-2-yl]{2-[(5-nitro(2-pyridyl))amino]ethyl}amine]
≤ 1000 nM	Nc1nc(NCCNc2ncc(CN3CCOCC3)c(-c3ccc(Cl)cc3Cl)n2)ccc1[N+](=O)[O-] [{2-[(6-amino-5-nitro(2-pyridyl))amino]ethyl}[4-(2,4-dichlorophenyl)-5-(morpholin-4-ylmethyl)pyrimidin-2-yl]amine]
≤ 10000 nM	O=C(NCc1ccccc1)c1ccc(-c2ccnc(NCCNc3ccc([N+](=O)[O-])cn3)n2)cc1 [{4-[2-({2-[(5-nitro(2-pyridyl))amino]ethyl}amino)pyrimidin-4-yl]phenyl}-N-benzylcarboxamide]
≤ 1000 nM	CCOC(=O)c1c(CC)nc(NCCNc2ccc([N+](=O)[O-])cn2)nc1-c1ccc(C(N)=O)cc1 [ethyl 4-(4-carbamoylphenyl)-6-ethyl-2-({2-[(5-nitro(2-pyridyl))amino]ethyl}amino)pyrimidine-5-carboxylate]
≤ 10000 nM	O=[N+]([O-])c1ccc(NCCNc2nccc(NCc3cc(Cl)cc(Cl)c3)n2)nc1 [[(3,5-dichlorophenyl)methyl][2-({2-[(5-nitro(2-pyridyl))amino]ethyl}amino)pyrimidin-4-yl]amine]
≤ 10000 nM	CCOC(=O)c1cnc(NCCNc2ccc([N+](=O)[O-])cn2)nc1-c1ccc(-c2ccccc2)cc1 [ethyl 2-({2-[(5-nitro(2-pyridyl))amino]ethyl}amino)-4-(4-phenylphenyl)pyrimidine-5-carboxylate]
≤ 10000 nM	O=C(NCc1ccccc1)c1ccc(-c2ccnc(NCCc3ccccn3)n2)cc1 [N-benzyl(4-{2-[(2-(2-pyridyl)ethyl)amino]pyrimidin-4-yl}phenyl)carboxamide]
≤ 10000 nM	CCOC(=O)c1c(CC)nc(NCCNc2ncccn2)nc1-c1ccc(C(N)=O)cc1 [ethyl 4-(4-carbamoylphenyl)-6-ethyl-2-{[2-(pyrimidin-2-ylamino)ethyl]amino}pyrimidine-5-carboxylate]
≤ 1000 nM	O=[N+]([O-])c1ccc(NCCNc2ncc([N+](=O)[O-])c(-c3ccccc3)n2)nc1 [{2-[(5-nitro(2-pyridyl))amino]ethyl}(5-nitro-4-phenylpyrimidin-2-yl)amine]
≤ 1000 nM	O=[N+]([O-])c1ccc(NCCN(CCN2CCOCC2)c2ncc(-n3ccnc3)c(-c3ccc(Cl)cc3Cl)n2)nc1 [[4-(2,4-dichlorophenyl)-5-imidazolylpyrimidin-2-yl](2-morpholin-4-ylethyl){2-[(5-nitro(2-pyridyl))amino]ethyl}amine]
≤ 1000 nM	Cc1c[nH]c(-c2cnc(NCCNc3ccc([N+](=O)[O-])c(N)n3)nc2-c2ccc(F)cc2Cl)n1 [{2-[(6-amino-5-nitro(2-pyridyl))amino]ethyl}[4-(2-chloro-4-fluorophenyl)-5-(4-methylimidazol-2-yl)pyrimidin-2-yl]amine]
≤ 10000 nM	COc1ccc(CNC(=O)c2ccc(-c3ccnc(NCCNc4ccc([N+](=O)[O-])cn4)n3)cc2)cc1 [N-[(4-methoxyphenyl)methyl]{4-[2-({2-[(5-nitro(2-pyridyl))amino]ethyl}-amino)pyrimidin-4-yl]phenyl}carboxamide]
≤ 10000 nM	O=[N+]([O-])c1ccc(NCCNc2nccc(NCc3cccc(Cl)c3)n2)nc1 [[(3-chlorophenyl)methyl][2-({2-[(5-nitro(2-pyridyl))-amino]ethyl}amino)pyrimidin-4-yl]amine]
≤ 1000 nM	CNC(=O)c1cnc(NCCNc2ccc([N+](=O)[O-])cn2)nc1-c1ccc(C#N)cc1 [[4-(4-cyanophenyl)-2-({2-[(5-nitro(2-pyridyl))amino]ethyl}amino)-pyrimidin-5-yl]-N-methylcarboxamide]
≤ 1000 nM	N#Cc1cnc(NCCNc2nccc(-c3ccc(C(=O)NCc4cccc(Br)c4)cc3)n2)nc1N [{4-[2-({2-[(4-amino-5-cyanopyrimidin-2-yl)amino]ethyl}amino)pyrimidin-4-yl]phenyl}-N-[(3-bromophenyl)methyl]carboxamide]
≤ 10000 nM	Cc1cn(-c2ccccc2)nc1-c1ccnc(NCCNc2ccccn2)n1 [[4-(4-methyl-1-phenylpyrazol-3-yl)pyrimidin-2-yl][2-(2-pyridyl-amino)ethyl]amine]

Continued, compound first:

SMILES	IC50
N#Cc1cnc(NCCNc2ccc([N+](=O)[O-])cn2)nc1-c1ccc(Cl)c(Cl)c1 [4-(3,4-dichlorophenyl)-2-({2-[(5-nitro(2-pyridyl))amino]ethyl}amino)pyrimidine-5-carbonitrile]	≤ 10000 nM
NS(=O)(=O)c1ccc(-c2ccnc(NCCNc3ccc([N+](=O)[O-])cn3)n2)cc1 [4-[2-({2-[(5-nitro-2-pyridyl)amino]ethyl}amino)pyrimidin-4-yl]benzenesulfonamide]	≤ 10000 nM
Cc1c[nH]c(-c2cnc(NCCNc3ccc(C#N)cn3)nc2-c2ccc(Br)cc2Cl)n1 [6-[(2-{[4-(4-bromo-2-chlorophenyl)-5-(4-methylimidazol-2-yl)pyrimidin-2-yl]amino}ethyl)amino]pyridine-3-carbonitrile]	≤ 1000 nM
O=C(NCCc1ccc(Cl)cc1Cl)c1ccc(-c2ccnc(NCCNc3ccc([N+](=O)[O-])cn3)n2)cc1 [N-[2-(2,4-dichlorophenyl)ethyl]{4-[2-({2-[(5-nitro(2-pyridyl))amino]ethyl}-amino)pyrimidin-4-yl]phenyl}carboxamide]	≤ 10000 nM
NC(=O)c1ccc(-c2ccnc(NCCCOc3cccc(-c4ccccc4)c3)n2)cc1 [4-(2-{[3-(3-phenylphenoxy)propyl]-amino}pyrimidin-4-yl)benzamide]	≤ 10000 nM
NC(=O)c1ccc(-c2ccnc(NCCc3ccc([N+](=O)[O-])cc3)n2)cc1 [4-(2-{[2-(4-nitrophenyl)ethyl]amino}pyrimidin-4-yl)benzamide]	≤ 10000 nM
N#Cc1ccc(NCCNc2nccc(-c3ccc(C(N)=O)cc3)n2)nc1 [4-[2-({2-[(5-cyano-2-pyridyl)amino]-ethyl}amino)pyrimidin-4-yl]benzamide]	≤ 1000 nM
NC(=O)c1ccc(-c2ccnc(NCc3cccc(-c4cccc(N)c4)c3)n2)cc1 [4-[2-({[3-(3-aminophenyl)phenyl]methyl}amino)pyrimidin-4-yl]benzamide]	≤ 10000 nM
O=C(NCc1cccc(Br)c1)c1ccc(-c2ccnc(NCCNc3ccc([N+](=O)[O-])cn3)n2)cc1 [N-[(3-bromophenyl)methyl]{4-[2-({2-[(5-nitro(2-pyridyl))amino]ethyl}amino)pyrimidin-4-yl]phenyl}carboxamide]	≤ 10000 nM
CS(=O)(=O)c1cnc(NCCNc2ccc([N+](=O)[O-])cn2)nc1-c1ccc(C#N)cc1 [4-[5-(methylsulfonyl)-2-({2-[(5-nitro(2-pyridyl))amino]ethyl}amino)pyrimidin-4-yl]benzenecarbonitrile]	≤ 1000 nM
CN(C)CCc1noc(-c2cnc(NCCNc3ccc([N+](=O)[O-])c(N)n3)nc2-c2ccc(Cl)cc2Cl)n1 [(2-{5-[2-({2-[(6-amino-5-nitro(2-pyridyl))amino]-ethyl}amino)-4-(2,4-dichlorophenyl)pyrimidin-5-yl](1,2,4-oxadiazol-3-yl)}ethyl)-dimethylamine]	≤ 1000 nM
c1ccc(-c2ccnc(NCCc3ccccn3)n2)cc1 [(4-phenylpyrimidin-2-yl)(2-(2-pyridyl)ethyl)amine]	≤ 10000 nM
COc1ccccc1CCNc1nccc(-c2ccc(C(N)=O)cc2)n1 [4-(2-{[2-(2-methoxyphenyl)-ethyl]amino}pyrimidin-4-yl)benzamide]	≤ 1000 nM
N#Cc1cnc(NCCNc2ccc([N+](=O)[O-])c(N)n2)nc1-c1ccc(Cl)c(Cl)c1 [2-({2-[(6-amino-5-nitro(2-pyridyl))amino]ethyl}amino)-4-(3,4-dichlorophenyl)pyrimidine-5-carbonitrile]	≤ 10000 nM
NC(=O)c1ccc(-c2ccnc(NCCCOc3cccc(C(F)(F)F)c3)n2)cc1 [4-[2-({3-[3-(trifluoromethyl)phenoxy]propyl}amino)pyrimidin-4-yl]benzamide]	≤ 1000 nM
N#Cc1ccc(-c2nc(NCCNc3ccc([N+](=O)[O-])cn3)ncc2C(N)=O)cc1 [4-(4-cyanophenyl)-2-({2-[(5-nitro(2-pyridyl))-amino]ethyl}amino)pyrimidine-5-carboxamide]	≤ 1000 nM
CN(C)CCN(C)C(=O)c1cnc(NCCNc2ccc([N+](=O)[O-])cn2)nc1-c1ccc(C#N)cc1 [N-[2-(dimethylamino)ethyl][4-(4-cyanophenyl)-2-({2-[(5-nitro(2-pyridyl))amino]ethyl}amino)pyrimidin-5-yl]-N-methylcarboxamide]	≤ 1000 nM
NC(=O)c1ccc(-c2ccnc(NCCCOc3ccccc3)n2)cc1 [4-{2-[(3-phenoxypropyl)amino]pyrimidin-4-yl}benzamide]	≤ 10000 nM
NC(=O)c1ccc(-c2ccnc(NCCc3ccccn3)n2)cc1 [4-{2-[(2-(2-pyridyl)ethyl)amino]pyrimidin-4-yl}benzamide]	≤ 1000 nM
N#Cc1cccc(-c2ccnc(NCCNc3ccc([N+](=O)[O-])cn3)n2)c1 [3-[2-({2-[(5-nitro-2-pyridyl)amino]ethyl}amino)pyrimidin-4-yl]benzenecarbonitrile]	≤ 10000 nM
